Test results published in patent publication EP2435019B1, “DODECA-2E,4E-DIENE AMIDES AND THEIR USE AS MEDICAMENTS AND COSMETICS” (Dr. August Wolff GmbH & Co. KG Arzneimittel, priority 2009, dated 2010).

Key:
[1] = Critical micelle concentration (CMC) measurement, dye micellization; format: physicochemical; details: fluorescein dye micellization in water, pH 6.9, room temperature
[2] = molecular target: T1, CB1 (Homo sapiens, UniProt P21554); test: Radioligand displacement assay on CB1 receptor; format: binding
T1 construct: purchased Perkin Elmer RBHCB1M
T1 sequence (P21554 whole entry): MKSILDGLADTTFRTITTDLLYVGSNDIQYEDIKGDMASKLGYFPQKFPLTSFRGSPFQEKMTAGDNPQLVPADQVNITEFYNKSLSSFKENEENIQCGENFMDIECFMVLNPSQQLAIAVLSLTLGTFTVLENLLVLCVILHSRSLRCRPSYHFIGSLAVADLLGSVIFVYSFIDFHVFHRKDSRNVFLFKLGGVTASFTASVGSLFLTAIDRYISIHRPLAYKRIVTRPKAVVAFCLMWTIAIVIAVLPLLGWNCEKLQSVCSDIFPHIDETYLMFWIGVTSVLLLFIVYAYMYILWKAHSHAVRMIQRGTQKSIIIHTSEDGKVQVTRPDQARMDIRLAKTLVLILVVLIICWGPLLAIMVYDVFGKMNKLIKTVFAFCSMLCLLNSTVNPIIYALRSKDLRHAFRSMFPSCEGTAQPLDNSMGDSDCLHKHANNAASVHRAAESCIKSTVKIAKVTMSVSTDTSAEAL

[3] = test system: Arachidonoylethanolamide Transport (AEAT); test: Cellular uptake of [3H]-AEA in U937 cells (assay C); format: cell-based; details: Homo sapiens, U-937; [3H]-AEA uptake, assay C (Tables 2 and 3)
[4] = test system: Anandamide transport; test: Anandamide transport (human) cellular functional assay (assay F); format: cell-based; details: human U-937 cells, 0.1 µM [3H]-Anandamide, 20 min (assay F)
Description: Anandamide transport is determined using human U-937 cells as receptor source. [3H]-Anandamide (0.1 Ci/mmol), final concentration 0.1 µM is used as substrate. AM-404 is used as reference compound. Reactions are carried out in KRH buffer (pH 7.4) at 37°C for 20 min. The reaction is terminated by rapid vacuum filtration onto glass fiber filters. Radioactivity trapped onto filters is determined and compared to control values in order to ascertain any interactions of test compound with anandamide uptake (Hiiliard C.J. The movement of N-arachidonylethanolamide (anandamide) across cellular membranes. Chem. Physics Lipids. 2008;108:123-134, with modifications).

[5] = test system: [3H]-AEA uptake; test: Cellular uptake of [3H]-AEA in human primary monocytes (assay C); format: cell-based; details: Figure 1(a), 1 µM
Description: • Figure 1: AEA re-uptake inhibition of 2E,4E-dieneamides 1 and 9 into human primary monocytes and U937 cells. […] Data are mean values ± SEM of 3 independent experiments in a sigmoidal dose-response curve. • Figure 2: Concentration-dependent effects of 4 and 5 on FAAH activity. […] The maximal inhibition (32%) of 5 was measured at 1 µM. Data are mean values ± SEM of 3 independent experiments. • Figure 3: Effects of low nM concentrations of N-alkylamide 7 on FAAH activity alone and in combination with the FAAH inhibitor URB597. […] Data are mean values ± SEM of 3 independent experiments. • Figure 4: 1 and 9 inhibit LPS-induced TNF-alpha release into culture medium (measured by ELISA). Human macrophages (10^6 cells) were stimulated with LPS (500 ng/ml) and treated with UCM707 and/or compounds 1 and 9 at 5 µM for 18 h. N = 3 ± SEM. • Figure 5: UCM707 (positive control) and compounds 1 and 9 diminish NO2^- production. Human macrophages (10^6 cells) were stimulated with LPS (500 ng/ml) and treated with UCM707 and/or compounds 1 and 9 at 5 µM for 18 h. Culture supernatants were assayed for nitrite levels, using the Griess reagent as a reflection of NO production. […]
Human lymphoma U937 cells were grown in RPMI 1640 medium (Invitrogen, Basel, Switzerland) supplemented with 10% fetal bovine serum, […] fungizone (amphotericin B), 100 units/ml penicillin, 100 µg/ml streptomycin, and 2 mM L-glutamine (all from Invitrogen) and selected for the cellular AEA uptake assay. […] The filters-bound radioactivity was measured using a Beckman LS6500 scintillation counter. Results were expressed as % of AEA uptake versus cells treated with solvent and the EC50 and IC50 values were calculated from the sigmoidal curves, which were generated using the GraphPad Prism (GraphPad Software, San Diego, CA, US).

SMILES	CMC [1] [µM]	Ki [2] [µM]	EC50 [3] [nM]	AEAT inhibition at 1 µM [4]	[3H]-AEA uptake inhibition [5]
CCCCCCC/C=C/C=C/C(=O)NCCO [Example 1, (2E,4E)-N-(2-hydroxyethyl)dodeca-2,4-diene amide]	>10	> 20	1220 ± 240	28 % of control	potently inhibited
CCCCCCC/C=C/C=C/C(=O)NCCc1cccc(OC)c1 [Example 9, (2E,4E)-N-(3-methoxyphenethyl)dodeca-2,4-diene amide]	>5	> 20	870 ± 120	34 % of control	potently inhibited
